Measurements as given in US20250011318A1 (ARCUS BIOSCIENCES, INC., priority 2023, published 2025).

Columns and labels:
Cbl-b = biological target: T1, Cbl-b (Homo sapiens, UniProt Q13191); test: Cbl-b probe displacement HTRF binding assay; conditions: 0.4 nM biotinylated Cbl-b, 150 nM BODIPY probe
T1 construct: biotin (biotinylated)
Description: The affinity with which compounds of the present disclosure bind to Cbl-b was assessed using probe displacement homologous time resolved fluorescence (HTRF) assays. The assays used a BODIPY™ conjugated probe (Example 54 from WO 2020264398) and biotinylated Cbl-b. The assays were performed in assay buffer consisting of 20 mM Hepes, 150 mM NaCl, 0.01% Triton X-100, 0.5 mM TCEP, 0.01% BSA. On the day of the assay, a 20 point, 1:2 master serial dilution of each compound was prepared in DMSO to span a final concentration range of 10 μM to 0 nM. Two hundred nanoliters of diluted compound was added to each well of a 384-well plate. Fifteen microliters of biotinylated—Cbl-b resuspended in assay buffer were added to each well and the plate incubated for 60 minutes at room temperature prior to addition of 5 μL of BODIPY™ probe in assay buffer. Final assay conditions included 0.4 nM of Cbl-b and 150 nM of BODIPY™ probe. After a further 15 minutes of incubation at room temperature, 5 μl of Streptavidin-Terbium cryptate reagent at 5-fold final concentration was added to each well of the 384-well plate. Binding of a probe to Cbl-b results in an increase of HTRF signal. HTRF signal was measured by Envision plate reader, while competition of a compound of the present disclosure with probe results in a decrease of signal. Percentage maximum activity in each test well was calculated based on DMSO (maximum activity, 0% displacement) and no protein control wells (baseline activity, 100% displacement). Binding affinity was determined from a dose response curve fitted using a standard four parameter fit equation. See Table 3 for data for compounds (Cbl-b Binding (IC50)).

Jurkat cells = test: IL-2 secretion assay in CD3/CD28-activated Jurkat cells (AlphaLISA); assay type: cell-based, human; conditions: Homo sapiens, CD3/CD28 T Cell Activator, 24 h, IL-2 AlphaLISA
Description: Certain compounds were also evaluated in an IL-2 secretion assay. On the day of the assay, a 16 point, 1:2 master serial dilution of each compound was prepared in Opti-MEM to span a final concentration range of 10 μM to 300 pM. Assays were setup in CORNING® tissue culture-treated 384-well microplates containing 60 nL of each dilution. Jurkat cells grown in RPMI-1640 supplemented with 10% FBS, 1% Glutamax, and 1% Pen/Strep were collected, resuspended in Opti-MEM. 50,000 cells/well and added to the compound plates. After a short spin (1200 rpm for 1 min), the plates were incubated at 37° C. for 1 hour. The cells were activated by adding 15 μL of IMUNOCULT™ Human CD3/CD28 T Cell Activator (STEMCELL Technologies) diluted in Opti-MEM. After 24 h of incubation at 37° C., aliquots of culture supernatants were transferred to OptiPlate-384 (PerkinElmer) microplates. The level of IL-2 secretion in the supernatants was then determined using the IL-2 (human) AlphaLISA Detection Kit (PerkinElmer) according to the manufacturer's recommendations. The AlphaLISA signal was measured using an EnVision plate reader (PerkinElmer). EC50 values were determined by fitting the data to a standard 4-parameter logistic equation. See Table 3 for data for select compounds (IL-2 Secretion (EC50)).

T1 sequence (Q13191 whole entry, species assumed): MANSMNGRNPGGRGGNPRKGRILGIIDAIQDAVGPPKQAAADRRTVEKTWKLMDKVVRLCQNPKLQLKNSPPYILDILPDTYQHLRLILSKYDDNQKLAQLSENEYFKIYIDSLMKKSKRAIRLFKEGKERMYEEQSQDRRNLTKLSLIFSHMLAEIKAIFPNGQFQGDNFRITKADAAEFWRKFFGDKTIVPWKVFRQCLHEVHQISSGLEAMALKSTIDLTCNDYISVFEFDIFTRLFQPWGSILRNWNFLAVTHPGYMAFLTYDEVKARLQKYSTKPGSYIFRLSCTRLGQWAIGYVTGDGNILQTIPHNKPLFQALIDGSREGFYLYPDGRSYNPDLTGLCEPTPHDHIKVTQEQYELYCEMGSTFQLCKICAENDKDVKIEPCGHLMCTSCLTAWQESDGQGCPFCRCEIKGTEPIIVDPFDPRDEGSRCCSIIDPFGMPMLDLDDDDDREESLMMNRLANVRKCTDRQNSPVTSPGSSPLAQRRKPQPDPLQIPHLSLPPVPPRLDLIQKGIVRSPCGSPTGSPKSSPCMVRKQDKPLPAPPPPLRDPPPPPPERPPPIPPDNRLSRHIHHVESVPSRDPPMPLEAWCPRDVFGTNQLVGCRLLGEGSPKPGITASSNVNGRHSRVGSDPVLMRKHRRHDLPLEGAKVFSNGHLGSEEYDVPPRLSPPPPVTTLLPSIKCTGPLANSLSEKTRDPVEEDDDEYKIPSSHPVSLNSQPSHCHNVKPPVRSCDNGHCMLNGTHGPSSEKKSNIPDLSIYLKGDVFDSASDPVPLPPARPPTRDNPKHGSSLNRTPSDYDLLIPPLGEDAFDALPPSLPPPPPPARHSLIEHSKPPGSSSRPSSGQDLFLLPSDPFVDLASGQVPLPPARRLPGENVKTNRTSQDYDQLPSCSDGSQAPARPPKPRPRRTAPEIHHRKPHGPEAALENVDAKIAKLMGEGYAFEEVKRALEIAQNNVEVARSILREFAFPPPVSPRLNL

For C[C@H]1CCCN(Cc2cc3c(S(C)(=O)=O)cn(-c4cc(-c5ccc(C#N)cc5-c5nccn5C)cc(C5CC5)n4)c(=O)c3[nH]2)C1 [Example 99, 4-[2-(2-{[(S)-3-methyl-1-piperidyl]methyl}-4-mesyl-7-oxo-1,6-dihydro-1,6-diaza-6-indenyl)-6-cyclopropyl-4-pyridyl]-3-(1-methyl-2-imidazolyl)benzonitrile], the IC50 (Cbl-b) was under 100 nM and the EC50 (Jurkat cells) was under 100 nM.
Molecule Cc1c[nH]nc1-c1cc(F)ccc1-c1cccc(-n2cc(C3CC3)c3cc(CN4CCC[C@H](C)C4)[nH]c3c2=O)c1 [Example 21, 4-cyclopropyl-6-[3-[4-fluoro-2-(4-methyl-1H-pyrazol-3-yl)phenyl]phenyl]-2-[[(3S)-3-methylpiperidin-1-yl]methyl]-1H-pyrrolo[2,3-c]pyridin-7-one] has an IC50 (Cbl-b) of under 100 nM and an EC50 (Jurkat cells) of 100 to 1000 nM.
Work on Cc1ccnnc1-c1cc(C#N)ccc1-c1cc(C2CC2)nc(-n2cc(C3CC3)c3cc(CNC4(C)CCC4)[nH]c3c2=O)c1 [Example 75, 4-[2-Cyclopropyl-6-[4-cyclopropyl-2-[[(1-methylcyclobutyl)amino]methyl]-7-oxo-1H-pyrrolo[2,3-c]pyridin-6-yl]pyridin-4-yl]-3-(4-methylpyridazin-3-yl)benzonitrile] yielded an IC50 (Cbl-b) of under 100 nM and an EC50 (Jurkat cells) of under 100 nM.
Cc1ccnnc1-c1cc(C#N)ccc1-c1cc(C2CC2)nc(-n2cc(C3CC3)c3cc(CN4CCC[C@H](C)C4)[nH]c3c2=O)c1 [Example 77] was tested, and the IC50 (Cbl-b) was under 100 nM and the EC50 (Jurkat cells) was under 100 nM.
For Cc1ccnnc1-c1cc(F)ccc1-c1cc(C2CC2)nc(-n2cnc3cc(CN4CCO[C@H](C)C4)[nH]c3c2=O)c1 [Example 106, 3-[6-cyclopropyl-4-[4-fluoro-2-(4-methylpyridazin-3-yl)phenyl]pyridin-2-yl]-6-[[(2R)-2-methylmorpholin-4-yl]methyl]-5H-pyrrolo[3,2-d]pyrimidin-4-one], the IC50 (Cbl-b) was under 100 nM and the EC50 (Jurkat cells) was under 100 nM.
Cc1cc2ncn(-c3cc(-c4ccc(F)cc4-c4nncn4C)cc(C4CC4)n3)c(=O)c2[nH]1 [Example 124, 3-[6-cyclopropyl-4-[4-fluoro-2-(4-methyl-1,2,4-triazol-3-yl)phenyl]-pyridin-2-yl]-6-methyl-5H-pyrrolo[3,2-d]pyrimidin-4-one] was tested, and the IC50 (Cbl-b) was under 100 nM and the EC50 (Jurkat cells) was 100 to 1000 nM.
Cn1cnnc1-c1cc(F)ccc1-c1cc(C2CC2)nc(-n2cc(C#N)c3cc(C(O)C4CCCC4)[nH]c3c2=O)c1 (stereo not drawn) [Example 91, 2-(cyclopentylhydroxymethyl)-6-{6-cyclopropyl-4-[4-fluoro-2-(4-methyl-4H-1,2,4-triazol-3-yl)phenyl]-2-pyridyl}-7-oxo-1,6-dihydro-1,6-diaza-4-indenecarbonitrile] was tested, and the IC50 (Cbl-b) was under 100 nM and the EC50 (Jurkat cells) was under 100 nM.
Cc1cccc(C(N)c2cc3c(C#N)cn(-c4cc(-c5ccc(F)cc5-c5nncn5C)cc(C5CC5)n4)c(=O)c3[nH]2)n1 (stereo not drawn) [Example 95, 2-[amino(6-methyl-2-pyridyl)methyl]-6-{6-cyclopropyl-4-[4-fluoro-2-(4-methyl-4H-1,2,4-triazol-3-yl)phenyl]-2-pyridyl}-7-oxo-1,6-dihydro-1,6-diaza-4-indenecarbonitrile] gave an IC50 (Cbl-b) of under 100 nM and an EC50 (Jurkat cells) of 100 to 1000 nM.
For CCOc1cc(-c2ccc(F)cc2-c2nncn2C)cc(-n2cc(C3CC3)c3cc(CN4CCC[C@H](C)C4)[nH]c3c2=O)n1 [Example 9, 2-{[(S)-3-Methyl-1-piperidyl]methyl}-4-cyclopropyl-6-{6-ethoxy-4-[4-fluoro-2-(4-methyl-4H-1,2,4-triazol-3-yl)phenyl]-2-pyridyl}-1,6-dihydro-1,6-diaza-7-indenone], the IC50 (Cbl-b) was under 100 nM and the EC50 (Jurkat cells) was under 100 nM.
In the case of Cn1cnnc1-c1cc(F)ccc1-c1cc(C2CC2)nc(-n2cnc3cc(C(F)C4CCCC4)[nH]c3c2=O)c1 (stereo not drawn) [Example 127, 6-[cyclopentyl(fluoro)methyl]-3-[6-cyclopropyl-4-[4-fluoro-2-(4-methyl-1,2,4-triazol-3-yl)phenyl]pyridin-2-yl]-5H-pyrrolo[3,2-d]pyrimidin-4-one], the IC50 (Cbl-b) is reported as under 100 nM and the EC50 (Jurkat cells) is reported as under 100 nM.
With Cn1ccnc1-c1cc(F)ccc1-c1cc(C2CC2)nc(-n2cc(C(F)(F)F)c3c(C#N)c[nH]c3c2=O)c1 [Example 136, 6-{6-cyclopropyl-4-[4-fluoro-2-(1-methyl-2-imidazolyl)phenyl]-2-pyridyl}-7-oxo-4-(trifluoromethyl)-1,6-dihydro-1,6-diaza-3-indenecarbonitrile] the IC50 (Cbl-b) was under 100 nM and the EC50 (Jurkat cells) was under 100 nM.
COc1cc(-c2ccc(F)cc2-c2nccn2C)cc(-n2cc(C3CC3)c3cc(CN4CCC[C@H](C)C4)[nH]c3c2=O)n1 [Example 82, 4-Cyclopropyl-6-[4-[4-fluoro-2-(1-methylimidazol-2-yl)phenyl]-6-methoxypyridin-2-yl]-2-[[(3S)-3-methylpiperidin-1-yl]methyl]-1H-pyrrolo[2,3-c]pyridin-7-one] was tested, and the IC50 (Cbl-b) was under 100 nM and the EC50 (Jurkat cells) was under 100 nM.
Work on COC1CN(Cc2cc3ncn(-c4cc(-c5ccc(F)cc5-c5nc(C#N)cn5C)cc(C5CC5)n4)c(=O)c3[nH]2)C1 [Example 109, 2-[2-(6-cyclopropyl-2-{2-[(3-methoxy-1-azetidinyl)methyl]-7-oxo-1,6-dihydro-1,4,6-triaza-6-indenyl}-4-pyridyl)-5-fluorophenyl]-1-methyl-4-imidazolecarbonitrile] yielded an IC50 (Cbl-b) of under 100 nM and an EC50 (Jurkat cells) of 100 to 1000 nM.
With CCNc1cc(-c2ccc(F)cc2-c2nncn2C)cc(-n2cc(C3CC3)c3cc(CN4CCC[C@H](C)C4)[nH]c3c2=O)n1 [Example 11, 2-{[(S)-3-methyl-1-piperidyl]methyl}-4-cyclopropyl-6-{6-(ethylamino)-4-[4-fluoro-2-(4-methyl-4H-1,2,4-triazol-3-yl)phenyl]-2-pyridyl}-1,6-dihydro-1,6-diaza-7-indenone] the IC50 (Cbl-b) was under 100 nM and the EC50 (Jurkat cells) was under 100 nM.
Work on Cn1ccnc1-c1cc(F)ccc1-c1cc(C2CC2)nc(-n2cc(C3CC3)c3cc(CN4C[C@@H]5CC[C@H]4C5)[nH]c3c2=O)c1 [Example 56, 2-({(1S,4R)-2-azabicyclo[2.2.1]hept-2-yl}methyl)-4-cyclopropyl-6-{6-cyclopropyl-4-[4-fluoro-2-(1-methyl-2-imidazolyl)phenyl]-2-pyridyl}-1,6-dihydro-1,6-diaza-7-indenone] yielded an IC50 (Cbl-b) of under 100 nM and an EC50 (Jurkat cells) of 100 to 1000 nM.
For C[C@@H]1CN(Cc2cc3c(C4CC4)cn(-c4cc(-c5ccc(F)cc5-c5nccn5C)cc(C#N)n4)c(=O)c3[nH]2)CCO1 [Example 63, 6-(2-{[(R)-2-methyl-4-morpholinyl]methyl}-4-cyclopropyl-7-oxo-1,6-dihydro-1,6-diaza-6-indenyl)-4-[4-fluoro-2-(1-methyl-2-imidazolyl)phenyl]-2-pyridinecarbonitrile], the IC50 (Cbl-b) was under 100 nM and the EC50 (Jurkat cells) was 100 to 1000 nM.
Work on Cc1cncnc1-c1cc(F)ccc1-c1cc(C2CC2)nc(N2Cc3ccc(CN4CCC[C@H](C)C4)cc3C2=O)c1 [Example 143, 2-[6-Cyclopropyl-4-[4-fluoro-2-(5-methylpyrimidin-4-yl)phenyl]pyridin-2-yl]-6-[[(3S)-3-methylpiperidin-1-yl]methyl]-3H-isoindol-1-one] yielded an IC50 (Cbl-b) of under 100 nM and an EC50 (Jurkat cells) of 1000 to 5000 nM.
COCCNCc1cc2ncn(-c3cc(-c4ccc(F)cc4-c4nncn4C)cc(C4CC4)n3)c(=O)c2[nH]1 [Example 28, 3-[6-cyclopropyl-4-[4-fluoro-2-(4-methyl-1,2,4-triazol-3-yl)phenyl]pyridin-2-yl]-6-[(2-methoxyethylamino)methyl]-5H-pyrrolo[3,2-d]pyrimidin-4-one] was tested, and the IC50 (Cbl-b) was under 100 nM and the EC50 (Jurkat cells) was under 100 nM.
